According to patent US20040039019A1, “Selected anthranilaminde pyridinamides and their use as pharmaceutical agents” (Schering AG, priority 2002, published 2004):

Assays:
VEGFR II (KDR) = VEGFR II (KDR) (Homo sapiens, UniProt P35968); assay: Inhibition of the KDR kinase activity; assay type: biochemical; settings: poly-(Glu4Tyr) substrate, 33P-ATP, 10 minutes at room temperature
Method: Solutions Required for the Tests
Stock solution A: 3 mmol of ATP in water, pH 7.0 (−70° C.)
Stock solution B: g-33P-ATP 1 mCi/100 μl
Stock solution C: poly-(Glu4Tyr) 10 mg/ml in water
Substrate solvent: 10 mmol of DTT, 10 mmol of manganese chloride, 100 mmol of magnesium chloride
Enzyme solution: 120 mmol of tris/HCl, pH 7.5, 10 μM of sodium vanadium oxide
Inhibition of the KDR- and FLT-1 Kinase Activity in the Presence of the Compounds According to the Invention
In a microtiter plate (without protein binding) that tapers to a point, 10 μl of substrate mix (10 μl of volume of ATP stock solution A +25 μCi of g-33P-ATP (about 2.5 μl of stock solution B)+30 μl of poly-(Glu4Tyr) stock solution C+1.21 ml of substrate solvent), 10 μl of inhibitor solution (substances corresponding to the dilutions, 3% DMSO in substrate solvent as a control) and 10 μl of enzyme solution (11.25 μg of enzyme stock solution (KDR or FLT-1 kinase) are added at 4° C. in 1.25 ml of enzyme solution (dilute). It is thoroughly mixed and incubated for 10 minutes at room temperature. Then, 10 μl of stop solution (250 mmol of EDTA, pH 7.0) is added, mixed, and 10 μl of the solution is transferred to a P 81 phosphocellulose filter. Then, it is washed several times in 0.1 M phosphoric acid. The filter paper is dried, coated with Meltilex and measured in a microbeta counter. […]

[1] = molecular target: T1, human Cytochrome P 450 1A2 (Homo sapiens, UniProt P05177); assay: Cytochrome P450 inhibition, isoenzyme 1A2; assay type: in vitro ADME; settings: baculovirus/insect cell-expressed human isoenzyme 1A2; read-out: Inhibition of the Cytochrome P450 Isoenzymes (IC50) 1A2
T1 construct: host or cells: baculovirus/insect cells
T1 sequence (P05177 1-516): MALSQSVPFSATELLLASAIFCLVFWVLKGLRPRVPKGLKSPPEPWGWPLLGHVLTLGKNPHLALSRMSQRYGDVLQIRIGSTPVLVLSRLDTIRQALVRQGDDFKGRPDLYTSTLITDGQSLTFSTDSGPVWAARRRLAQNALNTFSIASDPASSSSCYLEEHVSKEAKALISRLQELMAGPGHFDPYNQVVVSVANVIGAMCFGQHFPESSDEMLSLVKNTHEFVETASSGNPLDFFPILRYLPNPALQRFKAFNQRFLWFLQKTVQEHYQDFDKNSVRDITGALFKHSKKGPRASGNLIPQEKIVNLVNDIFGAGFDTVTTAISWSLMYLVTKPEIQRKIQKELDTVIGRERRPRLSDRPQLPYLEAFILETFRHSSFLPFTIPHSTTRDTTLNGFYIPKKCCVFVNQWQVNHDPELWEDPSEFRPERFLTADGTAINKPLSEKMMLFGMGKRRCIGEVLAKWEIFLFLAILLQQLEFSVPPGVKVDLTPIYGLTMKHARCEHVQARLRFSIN
Method: (§1) Cytochrome P450 Inhibition
(§2) The Cytochrome P450 inhibition was performed according to the publication of Crespi et al. (Anal. Biochem., 248, 188-190 (1997)) with use of baculovirus/insect cell-expressed, human Cytochrome P 450 isoenzymes (1A2, 2C9, 2C19, 2D6, 3A4).

[2] = molecular target: T2, human Cytochrome P 450 2C9 (Homo sapiens, UniProt P11712); assay: Cytochrome P450 inhibition, isoenzyme 2C9; assay type: in vitro ADME; settings: baculovirus/insect cell-expressed human isoenzyme 2C9; read-out: Inhibition of the Cytochrome P450 Isoenzymes (IC50) 2C9
T2 construct: host or cells: baculovirus/insect cells
Method: as §1, §2

[3] = molecular target: T3, human Cytochrome P 450 2C19 (Homo sapiens, UniProt P33261); assay: Cytochrome P450 inhibition, isoenzyme 2C19; assay type: in vitro ADME; settings: baculovirus/insect cell-expressed human isoenzyme 2C19; read-out: Inhibition of the Cytochrome P450 Isoenzymes (IC50) 2C19
T3 construct: host or cells: baculovirus/insect cells
Method: as §1, §2

[4] = molecular target: T4, human Cytochrome P 450 2D6 (Homo sapiens, UniProt P10635); assay: Cytochrome P450 inhibition, isoenzyme 2D6; assay type: in vitro ADME; settings: baculovirus/insect cell-expressed human isoenzyme 2D6; read-out: Inhibition of the Cytochrome P450 Isoenzymes (IC50) 2D6
T4 construct: host or cells: baculovirus/insect cells
Method: as §1, §2

[5] = molecular target: T5, human Cytochrome P 450 3A4 (Homo sapiens, UniProt P08684); assay: Cytochrome P450 inhibition, isoenzyme 3A4; assay type: in vitro ADME; settings: baculovirus/insect cell-expressed human isoenzyme 3A4; read-out: Inhibition of the Cytochrome P450 Isoenzymes (IC50) 3A4
T5 construct: host or cells: baculovirus/insect cells
Method: as §1, §2

T3 sequence (P33261 whole entry): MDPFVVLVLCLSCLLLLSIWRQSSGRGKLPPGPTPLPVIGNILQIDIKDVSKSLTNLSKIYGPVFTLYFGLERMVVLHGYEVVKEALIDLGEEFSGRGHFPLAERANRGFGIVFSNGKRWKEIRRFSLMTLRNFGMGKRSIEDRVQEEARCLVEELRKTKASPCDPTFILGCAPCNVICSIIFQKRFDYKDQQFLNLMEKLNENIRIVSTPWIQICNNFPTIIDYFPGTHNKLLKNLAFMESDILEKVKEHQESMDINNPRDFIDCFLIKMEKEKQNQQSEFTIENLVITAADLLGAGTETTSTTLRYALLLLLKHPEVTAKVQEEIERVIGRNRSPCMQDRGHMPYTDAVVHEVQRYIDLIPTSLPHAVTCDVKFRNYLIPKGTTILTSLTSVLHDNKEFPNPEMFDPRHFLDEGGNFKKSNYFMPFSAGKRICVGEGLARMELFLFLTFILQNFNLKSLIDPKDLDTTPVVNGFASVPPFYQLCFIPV
Chain of VEGFR II (KDR) (P35968 20-1356, species assumed): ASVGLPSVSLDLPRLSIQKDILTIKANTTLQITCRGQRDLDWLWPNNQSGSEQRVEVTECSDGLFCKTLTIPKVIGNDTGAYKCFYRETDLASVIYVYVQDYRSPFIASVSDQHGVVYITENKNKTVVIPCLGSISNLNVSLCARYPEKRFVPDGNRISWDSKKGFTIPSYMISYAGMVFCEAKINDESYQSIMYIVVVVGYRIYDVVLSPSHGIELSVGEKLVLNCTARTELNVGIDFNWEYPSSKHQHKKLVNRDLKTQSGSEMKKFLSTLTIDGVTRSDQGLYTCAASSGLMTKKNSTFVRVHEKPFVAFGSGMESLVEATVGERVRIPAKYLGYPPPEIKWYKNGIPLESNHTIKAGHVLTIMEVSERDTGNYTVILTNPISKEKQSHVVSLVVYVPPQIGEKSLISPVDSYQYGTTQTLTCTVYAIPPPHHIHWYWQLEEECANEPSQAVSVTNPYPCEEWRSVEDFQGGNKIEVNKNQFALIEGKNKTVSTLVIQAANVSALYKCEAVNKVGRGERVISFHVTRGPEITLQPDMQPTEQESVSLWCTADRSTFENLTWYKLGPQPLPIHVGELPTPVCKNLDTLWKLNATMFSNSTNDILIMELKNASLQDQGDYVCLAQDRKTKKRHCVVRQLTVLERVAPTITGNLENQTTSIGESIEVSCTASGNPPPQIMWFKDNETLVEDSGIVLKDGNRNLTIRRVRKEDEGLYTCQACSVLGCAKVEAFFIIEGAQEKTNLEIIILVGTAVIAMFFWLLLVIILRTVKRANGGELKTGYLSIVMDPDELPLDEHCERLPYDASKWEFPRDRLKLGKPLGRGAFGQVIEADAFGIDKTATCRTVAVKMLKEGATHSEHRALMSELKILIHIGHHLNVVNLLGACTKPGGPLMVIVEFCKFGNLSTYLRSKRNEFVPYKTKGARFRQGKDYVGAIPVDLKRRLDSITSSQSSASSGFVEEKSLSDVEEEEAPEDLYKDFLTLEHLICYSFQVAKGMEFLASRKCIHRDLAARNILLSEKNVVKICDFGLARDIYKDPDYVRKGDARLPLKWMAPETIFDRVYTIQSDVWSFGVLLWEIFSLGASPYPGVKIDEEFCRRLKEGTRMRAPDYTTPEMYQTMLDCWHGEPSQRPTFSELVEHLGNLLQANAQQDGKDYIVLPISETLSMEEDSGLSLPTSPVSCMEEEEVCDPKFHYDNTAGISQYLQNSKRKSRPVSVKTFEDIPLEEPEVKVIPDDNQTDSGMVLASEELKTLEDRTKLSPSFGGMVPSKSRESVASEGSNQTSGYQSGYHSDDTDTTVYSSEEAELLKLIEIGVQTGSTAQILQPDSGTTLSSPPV
T5 sequence (P08684 whole entry): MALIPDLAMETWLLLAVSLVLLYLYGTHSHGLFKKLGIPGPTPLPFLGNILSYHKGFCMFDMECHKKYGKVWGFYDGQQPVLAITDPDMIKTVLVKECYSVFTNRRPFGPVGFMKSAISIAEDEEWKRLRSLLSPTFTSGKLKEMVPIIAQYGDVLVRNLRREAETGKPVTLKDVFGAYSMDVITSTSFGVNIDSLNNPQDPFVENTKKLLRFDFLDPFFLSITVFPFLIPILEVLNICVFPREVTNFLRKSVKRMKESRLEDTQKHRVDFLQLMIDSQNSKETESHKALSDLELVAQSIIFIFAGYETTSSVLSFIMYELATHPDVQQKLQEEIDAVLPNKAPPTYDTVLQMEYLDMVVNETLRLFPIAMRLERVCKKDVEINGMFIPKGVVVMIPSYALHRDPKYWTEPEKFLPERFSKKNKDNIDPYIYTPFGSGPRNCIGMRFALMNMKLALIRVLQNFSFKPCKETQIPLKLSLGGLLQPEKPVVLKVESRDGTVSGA
T2 sequence (P11712 whole entry): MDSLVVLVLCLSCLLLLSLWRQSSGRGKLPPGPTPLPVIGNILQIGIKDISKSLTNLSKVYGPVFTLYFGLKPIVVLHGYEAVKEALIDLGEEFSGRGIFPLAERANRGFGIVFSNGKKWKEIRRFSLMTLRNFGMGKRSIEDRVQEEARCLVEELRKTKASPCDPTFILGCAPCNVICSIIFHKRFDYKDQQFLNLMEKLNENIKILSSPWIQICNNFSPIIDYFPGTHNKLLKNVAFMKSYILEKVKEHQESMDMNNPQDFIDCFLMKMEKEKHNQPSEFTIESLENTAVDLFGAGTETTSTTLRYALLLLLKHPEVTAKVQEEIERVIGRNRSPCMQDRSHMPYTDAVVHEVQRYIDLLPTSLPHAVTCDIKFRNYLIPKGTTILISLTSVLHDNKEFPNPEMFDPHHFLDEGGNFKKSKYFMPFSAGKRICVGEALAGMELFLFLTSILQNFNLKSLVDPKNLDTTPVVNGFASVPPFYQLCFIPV
T4 sequence (P10635 whole entry): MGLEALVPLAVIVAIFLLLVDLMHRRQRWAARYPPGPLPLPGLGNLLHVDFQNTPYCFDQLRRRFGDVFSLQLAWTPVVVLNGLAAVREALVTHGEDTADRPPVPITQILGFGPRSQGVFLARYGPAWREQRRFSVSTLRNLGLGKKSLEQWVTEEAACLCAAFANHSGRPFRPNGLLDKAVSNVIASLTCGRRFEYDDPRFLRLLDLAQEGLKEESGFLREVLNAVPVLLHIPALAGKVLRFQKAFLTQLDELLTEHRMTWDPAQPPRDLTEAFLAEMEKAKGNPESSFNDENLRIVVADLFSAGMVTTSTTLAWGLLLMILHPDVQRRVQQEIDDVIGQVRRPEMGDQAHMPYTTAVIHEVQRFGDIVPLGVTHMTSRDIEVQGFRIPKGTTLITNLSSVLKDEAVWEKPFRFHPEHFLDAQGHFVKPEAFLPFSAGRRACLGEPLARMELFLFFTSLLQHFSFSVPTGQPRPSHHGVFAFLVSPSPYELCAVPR

IC50 (VEGFR II (KDR)): 0.05 µM | IC50 [1]: > 30 µM | IC50 [2]: 23 µM | IC50 [3]: > 30 µM | IC50 [4]: > 30 µM | IC50 [5]: > 30 µM
SMILES: O=C1Cc2ccc(NC(=O)c3ccccc3NCc3ccc(=O)[nH]c3)cc2N1 [Example 1.0, N-(2-Oxo-2,3-dihydro-1H-indol-6-yl)-2-[(6-oxo-1,6-dihydro-pyridin-3-ylmethyl)-amino]-benzamide]
